Assays:
Format in all cases: physicochemical
[1] = Hygroscopicity (XRPD after moisture absorption at RH=80%)
Procedure: Hygroscopicity of an amorphous solid form of (S)—N-[5-[1-(3-ethoxy-4-methoxyphenyl)-2-(methylsulfonyl)ethyl]-4,6-dioxo-5,6-dihydro-4H-thieno[3,4-c]pyrrole-1-yl]acetamide was studied. The amorphous solid form of (S)—N-[5-[1-(3-ethoxy-4-methoxyphenyl)-2-(methylsulfonyl)ethyl]-4,6-dioxo-5,6-dihydro-4H-thieno[3,4-c]pyrrole-1-yl]acetamide was placed in a drier containing saturated ammonium chloride solution (RH=80%) until weight was balanced. The crystal form was tested with XRPD.
An amorphous solid form of (S)—N-[5-[1-(3-ethoxy-4-methoxyphenyl)-2-(methylsulfonyl)ethyl]-4,6-dioxo-5,6-dihydro-4H-thieno[3,4-c]pyrrole-1-yl]acetamide prepared according to the process of Example 1 was tested.

[2] = Pressure stability (DSC after tablet pressing); conditions: tablet press machine with single punch, tablet diameter 6 mm, hardness 25-30 N
Procedure: An amorphous solid form of (S)—N-[5-[1-(3-ethoxy-4-methoxyphenyl)-2-(methylsulfonyl)ethyl]-4,6-dioxo-5,6-dihydro-4H-thieno[3,4-c]pyrrole-1-yl]acetamide was pressed by tablet press machine with single punch. The diameter of the tablet was 6 mm and the hardness was 25-30 N. DSC test was carried out on pressed powder.

[3] = Grinding stability (XRPD after grinding)
Procedure: An amorphous solid form of (S)—N-[5-[1-(3-ethoxy-4-methoxyphenyl)-2-(methylsulfonyl)ethyl]-4,6-dioxo-5,6-dihydro-4H-thieno[3,4-c]pyrrole-1-yl]acetamide prepared according to the process of Example 1 was ground in a glass mortar for 5 minutes. The ground samples were tested with XRPD.

[4] = Dissolution rate in water; conditions: about 25 mg in 900 mL of water, 37° C., rotating speed 100/minute
Procedure: An amorphous solid form of (S)—N-[5-[1-(3-ethoxy-4-methoxyphenyl)-2-(methylsulfonyl)ethyl]-4,6-dioxo-5,6-dihydro-4H-thieno[3,4-c]pyrrole-1-yl]acetamide prepared according to the process in Example 1 was tested.
About 25 mg of the amorphous solid form of (S)—N-[5-[1-(3-ethoxy-4-methoxyphenyl)-2-(methylsulfonyl)ethyl]-4,6-dioxo-5,6-dihydro-4H-thieno[3,4-c]pyrrole-1-yl]acetamide was added to 900 mL of water. The mixture was stirred at a rotating speed of 100/minute at 37° C. for 90 minutes. The supernatant was filtered and diluted. The concentration of the diluted solution (a mg/mL) was determined by ultraviolet spectrophotometer. The dissolution rate was calculated according to the formula 900a/25×100%.

## CCOc1cc([C@@H](CS(C)(=O)=O)N2C(=O)c3csc(NC(C)=O)c3C2=O)ccc1OC [amorphous solid form, (S)—N-[5-[1-(3-ethoxy-4-methoxyphenyl)-2-(methylsulfonyl)ethyl]-4,6-dioxo-5,6-dihydro-4H-thieno[3,4-c]pyrrole-1-yl]acetamide]
[1]; RH=80% until weight was balanced
  Moisture absorption stability (conclusion in words): good moisture absorption stability
[1]; drier with saturated ammonium chloride solution (RH=80%) until weight was balanced
  Crystal Form after Absorbing Moisture: Amorphous
[2]
  DSC curve of pressed powder compared with FIG. 2: substantially identical
  Pressure stability (conclusion in words): good stability
[3]; Grinding in a glass mortar for 5 minutes
  Crystal Form after Grinding: Amorphous
[3]; ground in a glass mortar for 5 minutes
  Grinding stability (conclusion in words): good grinding stability
[4]; Time 0 min
  Dissolution Rate (%): 0%
[4]; Time 15 min
  Dissolution Rate (%): 38.3%
[4]; Time 30 min
  Dissolution Rate (%): 54.9%
[4]; Time 45 min
  Dissolution Rate (%): 72.8%
[4]; Time 60 min
  Dissolution Rate (%): 63.7%
